Results taken from PMC10770036, “Novel dual inhibitors of PARP and HDAC induce intratumoral STING-mediated antitumor immunity in triple-negative breast cancer” (Cell Death & Disease, 2024).

Tests used:
RAD51 = assay: Western blot of RAD51 expression in TNBC cells; type: cell-based, human; settings: alone, 24 h, TNBC cell lines
Experimental: Western blot analysis was performed as previously described, and all western blot analyses were performed at least three times.
Western blot analysis was performed as previously described. Briefly, whole cell or tissue lysates were prepared using ice-cold Nonidet P-40 buffer mixed with protease and phosphatase inhibitors (Roche, IN, USA) and centrifuged at 14,000 × g at 4 °C for 10 min. The protein lysates were fractionated by sodium dodecyl sulfate–polyacrylamide gel electrophoresis (SDS–PAGE) and transferred to polyvinylidene fluoride (PVDF) membranes (Merck, Darmstadt, Germany). Membranes were incubated in 1× TBST buffer containing 5% nonfat powdered milk at room temperature for 2 h. The indicated primary antibody was incubated with PVDF membranes, followed by a washing step using 1× TBST and a secondary antibody conjugated to HRP. Signal detection was carried out using the Western ECL Substrate kit (Bio-Rad, Hercules, CA, USA). […]

MCF-7 cells = assay: MTT cell viability assay, MCF-7; settings: Homo sapiens, MCF7, 72 h, read-out: IC50 MCF-7
Experimental: (§3) The viability assay was measured by a 3-(4,5-dimethylthiazol-2-yl)−2,5-diphenyltetrazolium bromide (MTT) assay.
(§4) In brief, cells were seeded at a density of 6,000 cells in 96-well plates and cultured overnight. […] After aspiration of the medium, the formazan crystals were dissolved in 100 μL of DMSO. The absorbance at 490 nm was measured using a microplate reader (BioTek). All these analyses were performed at least three times.

MDA-MB-436 cells = assay: MTT cell viability assay, MDA-MB-436; settings: Homo sapiens, MDA-MB-436, 72 h, read-out: IC50 MDA-MB-436
Experimental: as §3, §4

MDA-MB-231 cells = assay: MTT cell viability assay, MDA-MB-231; settings: Homo sapiens, MDA-MB-231, 72 h, read-out: IC50 MDA-MB-231
Experimental: as §3, §4

MDA-MB-468 cells = assay: MTT cell viability assay, MDA-MB-468; settings: Homo sapiens, MDA-MB-468, 72 h, read-out: IC50 MDA-MB-468
Experimental: as §3, §4

MCF-10A cells = assay: MTT cell viability assay, MCF-10A; settings: Homo sapiens, 72 h, read-out: IC50 MCF-10A
Experimental: as §3, §4

recombinant HDAC6 = target: T1, recombinant HDAC6 (Homo sapiens, UniProt Q9UBN7); assay: HDAC6 inhibition assay (Ac-peptide-AMC fluorescence); type: biochemical
T1 construct: purchased BPS Bioscience
T1 sequence (Q9UBN7 1-1215): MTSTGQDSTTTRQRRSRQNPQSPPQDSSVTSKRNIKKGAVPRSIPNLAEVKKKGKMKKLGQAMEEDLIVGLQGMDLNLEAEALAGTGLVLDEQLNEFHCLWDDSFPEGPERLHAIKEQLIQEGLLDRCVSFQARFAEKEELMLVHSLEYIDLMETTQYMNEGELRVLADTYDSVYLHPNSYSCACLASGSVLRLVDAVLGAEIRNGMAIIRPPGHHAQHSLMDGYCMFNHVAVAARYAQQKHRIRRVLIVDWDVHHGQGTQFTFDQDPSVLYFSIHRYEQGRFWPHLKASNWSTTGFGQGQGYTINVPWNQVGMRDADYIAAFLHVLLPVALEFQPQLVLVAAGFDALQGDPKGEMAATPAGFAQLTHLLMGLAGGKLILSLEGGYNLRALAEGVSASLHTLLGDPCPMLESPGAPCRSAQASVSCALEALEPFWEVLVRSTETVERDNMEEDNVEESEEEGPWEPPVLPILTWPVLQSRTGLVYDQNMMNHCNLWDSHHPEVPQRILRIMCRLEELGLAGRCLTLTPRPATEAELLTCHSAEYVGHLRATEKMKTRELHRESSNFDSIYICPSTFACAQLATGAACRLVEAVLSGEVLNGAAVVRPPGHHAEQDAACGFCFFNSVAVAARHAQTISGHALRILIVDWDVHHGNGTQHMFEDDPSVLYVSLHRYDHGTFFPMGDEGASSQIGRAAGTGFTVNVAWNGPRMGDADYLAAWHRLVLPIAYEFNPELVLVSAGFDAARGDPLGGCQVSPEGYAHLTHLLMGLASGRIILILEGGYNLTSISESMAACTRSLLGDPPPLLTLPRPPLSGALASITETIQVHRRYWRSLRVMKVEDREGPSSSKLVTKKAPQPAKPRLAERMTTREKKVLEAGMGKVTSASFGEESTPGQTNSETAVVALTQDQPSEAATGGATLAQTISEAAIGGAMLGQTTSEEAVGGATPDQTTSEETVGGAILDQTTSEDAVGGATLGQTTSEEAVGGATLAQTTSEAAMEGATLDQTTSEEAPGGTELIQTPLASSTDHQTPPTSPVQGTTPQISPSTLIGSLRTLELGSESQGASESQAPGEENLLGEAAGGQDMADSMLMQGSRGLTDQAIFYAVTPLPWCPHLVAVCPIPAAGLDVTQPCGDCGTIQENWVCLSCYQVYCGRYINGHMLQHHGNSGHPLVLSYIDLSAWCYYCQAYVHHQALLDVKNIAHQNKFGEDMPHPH
Experimental: (§1) The in vitro HDAC inhibition assays were carried out by Sundia MediTech Co. Ltd. in Shanghai, China. […] Reactions were stopped with trypsin, and the samples were incubated for another 90 min at 37 °C. […] IC50 values were obtained using GraphPad Prism software.

PARP1 = target: T2, PARP1 (Homo sapiens, UniProt P09874); assay: PARP1 enzymatic inhibition assay (PARP1 Colorimetric Assay Kit); type: biochemical
T2 construct: purchased BPS Bioscience 80580
T2 sequence (P09874 whole entry): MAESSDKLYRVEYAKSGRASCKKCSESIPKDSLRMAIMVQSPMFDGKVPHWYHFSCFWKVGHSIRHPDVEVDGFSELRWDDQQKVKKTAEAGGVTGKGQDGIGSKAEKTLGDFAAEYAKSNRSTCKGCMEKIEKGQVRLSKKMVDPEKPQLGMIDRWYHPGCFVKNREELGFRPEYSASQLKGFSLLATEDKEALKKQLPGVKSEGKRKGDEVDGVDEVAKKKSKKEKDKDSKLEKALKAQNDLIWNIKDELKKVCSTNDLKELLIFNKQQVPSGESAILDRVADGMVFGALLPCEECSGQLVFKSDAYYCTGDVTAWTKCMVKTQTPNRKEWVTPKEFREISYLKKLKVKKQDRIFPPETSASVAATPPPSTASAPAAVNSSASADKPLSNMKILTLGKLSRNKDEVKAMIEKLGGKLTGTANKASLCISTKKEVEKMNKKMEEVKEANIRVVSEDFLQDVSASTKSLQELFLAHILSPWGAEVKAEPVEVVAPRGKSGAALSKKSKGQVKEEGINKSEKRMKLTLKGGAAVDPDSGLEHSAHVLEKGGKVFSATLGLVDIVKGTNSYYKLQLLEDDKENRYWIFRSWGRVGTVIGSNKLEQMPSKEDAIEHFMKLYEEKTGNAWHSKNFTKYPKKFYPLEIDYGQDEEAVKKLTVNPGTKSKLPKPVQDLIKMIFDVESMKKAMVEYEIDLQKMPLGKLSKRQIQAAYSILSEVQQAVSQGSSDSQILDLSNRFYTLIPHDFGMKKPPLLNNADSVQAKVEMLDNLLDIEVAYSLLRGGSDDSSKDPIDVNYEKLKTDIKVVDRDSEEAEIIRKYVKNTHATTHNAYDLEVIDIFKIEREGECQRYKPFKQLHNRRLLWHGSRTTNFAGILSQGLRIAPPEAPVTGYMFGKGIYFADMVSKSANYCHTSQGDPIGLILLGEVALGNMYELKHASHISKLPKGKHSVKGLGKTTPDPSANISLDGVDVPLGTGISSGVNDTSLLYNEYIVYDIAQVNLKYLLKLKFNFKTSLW
Experimental: (§2) Briefly, the 1× histone mixture was added to each well and incubated overnight at 4 °C. Each well was washed three times with 200 µL 1× TBST buffer and filled with 200 µL Blocking buffer at room temperature for 90 min. Then, each well was filled with 25 µL of PARP master mixture (5 μL activated DNA + 2.5 μL 10× PARP Assay mixture + 2.5 μL 10× PARP buffer + 15 μL distilled water). Next, 5 µL of the compound of different concentrations was added to each well, and PARP enzyme was added and incubated at room temperature for 1 h. Next, streptavidin HRP solution was added and incubated at room temperature for 30 min. After adding 100 µL of colorimetric HRP substrate to each well, the plate was incubated until a blue color developed in the positive well, which contained PARP enzyme without inhibitors. The reaction was then quenched with 2 M sulfuric acid, and absorbance at 450 nm was measured using a microplate reader (BioTek, Winooski, VT, USA). After calculating the inhibition rate, the IC50 value was determined.

recombinant HDAC1 = target: T3, recombinant HDAC1 (Homo sapiens, UniProt Q13547); assay: HDAC1 inhibition assay (Ac-peptide-AMC fluorescence); type: biochemical
T3 construct: purchased Active Motif
T3 sequence (Q13547 whole entry): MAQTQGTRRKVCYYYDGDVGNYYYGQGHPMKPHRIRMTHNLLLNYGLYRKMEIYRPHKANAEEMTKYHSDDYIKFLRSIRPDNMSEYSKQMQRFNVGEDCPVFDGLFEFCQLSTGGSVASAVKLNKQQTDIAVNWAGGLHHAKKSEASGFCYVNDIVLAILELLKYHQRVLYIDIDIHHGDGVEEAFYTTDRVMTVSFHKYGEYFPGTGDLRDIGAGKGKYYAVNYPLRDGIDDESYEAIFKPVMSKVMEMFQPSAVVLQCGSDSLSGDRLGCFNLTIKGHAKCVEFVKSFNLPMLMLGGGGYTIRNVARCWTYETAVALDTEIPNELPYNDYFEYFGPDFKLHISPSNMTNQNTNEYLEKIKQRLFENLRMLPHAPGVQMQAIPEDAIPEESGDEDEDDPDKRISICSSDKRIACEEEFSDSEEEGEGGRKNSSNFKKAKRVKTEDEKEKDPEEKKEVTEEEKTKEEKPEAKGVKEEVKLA
Experimental: as §1

PARP2 = target: T4, PARP2 (Homo sapiens, UniProt Q9UGN5); assay: PARP2 enzymatic inhibition assay (PARP2 Colorimetric Assay Kit); type: biochemical
T4 construct: purchased BPS Bioscience 80581
T4 sequence (Q9UGN5 whole entry): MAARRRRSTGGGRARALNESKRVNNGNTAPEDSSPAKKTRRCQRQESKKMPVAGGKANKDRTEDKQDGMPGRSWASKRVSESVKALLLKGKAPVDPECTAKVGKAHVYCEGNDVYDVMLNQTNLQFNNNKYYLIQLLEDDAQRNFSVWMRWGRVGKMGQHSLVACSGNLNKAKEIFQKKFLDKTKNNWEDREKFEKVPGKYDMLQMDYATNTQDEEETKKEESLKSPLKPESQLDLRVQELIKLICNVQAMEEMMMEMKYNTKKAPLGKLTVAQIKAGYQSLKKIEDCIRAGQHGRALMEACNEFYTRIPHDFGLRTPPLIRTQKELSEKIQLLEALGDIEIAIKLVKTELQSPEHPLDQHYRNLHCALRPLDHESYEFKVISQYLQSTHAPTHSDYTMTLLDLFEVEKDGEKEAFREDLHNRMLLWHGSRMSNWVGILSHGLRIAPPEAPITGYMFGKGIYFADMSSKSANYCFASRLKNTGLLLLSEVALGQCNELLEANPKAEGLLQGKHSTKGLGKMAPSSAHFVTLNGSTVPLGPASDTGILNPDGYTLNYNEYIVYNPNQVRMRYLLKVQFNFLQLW
Experimental: as §2

[1] = tested on: MDA-MB-436, MDA-MB-231, and MDA-MB-468 cells; assay: Colony formation assay; type: cell-based, human; settings: low dose
Experimental: MDA-MB-231, MDA-MB-436 and MDA-MB-468 cells were seeded at a density of 2,000 cells in 6-well plates and cultured overnight. […] The cells were fixed with 4% paraformaldehyde (Merck) for 1 h at room temperature and stained with 0.1% crystal violet (Beyotime Biotechnology) for 30 min. Under an inverted phase contrast microscope (Leica Microsystems, Heidelberg, Germany), cell colonies were photographed at 5× magnification. All these analyses were performed at least three times.

CCL5 and CXCL10 mRNA = assay: RT-PCR of CCL5 and CXCL10 mRNA; type: cell-based, human; settings: MDA-MB-436 and MDA-MB-468 cells, 48 h
Experimental: Total RNA was extracted using the Eastep Super Total RNA Extraction Kit (Promega, Charbonnières, France) according to the manufacturer’s protocol. Reverse transcription was performed using HyperScript RT SuperMix for qPCR (APExBIO, Houston, TX, USA). Gene expression was quantified with Hieff qPCR SYBR Green Master Mix (Yeason) on an ABI 7500 (Applied Biosystems, Grand Island, NY, USA). Data were then analyzed using the 2^-ΔΔCT method. The primers were designed and synthesized by Sangon Biotech, and the sequences are shown in Supporting Information Table S1.

Row | SMILES | RAD51 expression (RAD51) | IC50 (MCF-7 cells) [µM] | IC50 (MDA-MB-436 cells) [µM] | IC50 (MDA-MB-231 cells) [µM] | IC50 (MDA-MB-468 cells) [µM] | IC50 (MCF-10A cells) [µM] | IC50 (recombinant HDAC6) [µM] | IC50 (PARP1) [µM] | IC50 (recombinant HDAC1) [µM] | IC50 (PARP2) [µM] | clonogenicity ([1]; BRCA1- and HRR-deficient MDA-MB-436 cells) | clonogenicity ([1]; MDA-MB-231 and MDA-MB-468 cells) | mRNA levels of CCL5 and CXCL10 (CCL5 and CXCL10 mRNA)
1 | Nc1cc(F)ccc1NC(=O)c1ccc(CNC(=O)/C=C/c2cccnc2)cc1 [Chidamide, chidamide, reference compound] | reduced the expression of RAD51 | 4.6 ± 0.78 | 4.15 ± 0.92 | 2.34 ± 0.92 | 0.75 ± 0.22 | > 50 |  |  |  |  |  |  | 
2 | Nc1ccccc1NC(=O)/C=C/c1ccc(CN2CCN(C(=O)c3cc(Cc4n[nH]c(=O)c5ccccc45)ccc3F)CC2)cc1 [Compound B101] |  | 3.62 ± 1.21 | 0.53 ± 0.08 | 0.41 ± 0.01 | 0.3 ± 0.05 | 1.45 ± 0.09 | > 10 | 0.0132 | 0.12 | 0.00408 |  |  | 
3 | Nc1ccccc1NC(=O)Cc1ccc(CN2CCN(C(=O)c3cc(Cc4n[nH]c(=O)c5ccccc45)ccc3F)CC2)cc1 [Compound B201] |  | 5.3 ± 1.23 | 0.97 ± 0.73 | 0.38 ± 0.08 | 1.35 ± 0.55 | 14 ± 2.45 | > 10 | 0.00755 | 0.06 | 0.0138 |  |  | 
4 | Nc1cc(F)ccc1NC(=O)Cc1ccc(CN2CCN(C(=O)c3cc(Cc4n[nH]c(=O)c5ccccc45)ccc3F)CC2)cc1 [Compound B202] |  | 15.6 ± 3.52 | 0.65 ± 0.14 | 0.46 ± 0.12 | 0.56 ± 0.1 | 9.83 ± 0.75 | > 10 | 0.0103 | 0.16 | 0.0342 |  |  | 
5 | Nc1ccccc1NC(=O)CCc1ccc(CN2CCN(C(=O)c3cc(Cc4n[nH]c(=O)c5ccccc45)ccc3F)CC2)cc1 [Compound B301] |  | 3.53 ± 1.11 | 1.73 ± 0.82 | 1.96 ± 0.63 | 1.75 ± 0.37 | 30.1 ± 9.8 | > 10 | 0.0114 | > 10 | 0.0704 |  |  | 
6 | Nc1ccccc1NC(=O)CN1CCN(C(=O)c2cc(Cc3n[nH]c(=O)c4ccccc34)ccc2F)CC1 [Compound B401] |  |  |  |  |  |  | > 10 |  | > 10 |  |  |  | 
7 | Nc1cc(F)ccc1NC(=O)CN1CCN(C(=O)c2cc(Cc3n[nH]c(=O)c4ccccc34)ccc2F)CC1 [Compound B402] |  |  |  |  |  |  | > 10 |  | > 10 |  |  |  | 
8 | Nc1ccccc1NC(=O)CCN1CCN(C(=O)c2cc(Cc3n[nH]c(=O)c4ccccc34)ccc2F)CC1 [Compound B501] |  |  |  |  |  |  | > 10 |  | > 10 |  |  |  | 
9 | Nc1cc(F)ccc1NC(=O)CCN1CCN(C(=O)c2cc(Cc3n[nH]c(=O)c4ccccc34)ccc2F)CC1 [Compound B502] |  |  |  |  |  |  | > 10 |  | > 10 |  |  |  | 
10 | Nc1ccccc1NC(=O)CCCN1CCN(C(=O)c2cc(Cc3n[nH]c(=O)c4ccccc34)ccc2F)CC1 [Compound B601] |  |  |  |  |  |  | > 10 |  | > 10 |  |  |  | 
11 | Nc1cc(F)ccc1NC(=O)CCCN1CCN(C(=O)c2cc(Cc3n[nH]c(=O)c4ccccc34)ccc2F)CC1 [Compound B602] |  |  |  |  |  |  | > 10 |  | > 10 |  |  |  | 
12 | O=C(c1cc(Cc2n[nH]c(=O)c3ccccc23)ccc1F)N1CCN(C(=O)C2CC2)CC1 [Olaparib, olaparib, reference compound] |  | > 25 | 8.08 ± 2.02 | 3.24 ± 2.2 | 14.5 ± 2.44 | 28 ± 3.48 |  |  |  |  | reduced the clonogenicity | this effect was not observed | rise in the mRNA levels of CCL5 and CXCL10
